Reference: patent publication US11396509B2, “Solid forms of a toll-like receptor modulator” (Gilead Sciences, Inc., priority 2019, dated 2022)

Assay: Dynamic vapor sorption (moisture sorption/desorption)
Assay type: physicochemical
Conditions: for change of solid form post dynamic vapor sorption experiment: after DVS experiment up to 95% RH at 25° C.; for water absorbed (dynamic vapor sorption): up to 95% RH at 25° C.
Protocol: Moisture sorption/desorption data were collected on a VTI SGA-100 Vapor Sorption Analyzer. NaCl and PVP were used as calibration standards. Samples were not dried prior to analysis. Sorption and desorption data were collected over a range from 5% to 95% RH at 10% RH increments under a nitrogen purge. The equilibrium criterion used for analysis was less than 0.0100% weight change in 5 minutes with a maximum equilibration time of 3 hours. Weight percentages reported in the data section are relative to the total sample mass introduced prior to equilibration at 5% RH as measured on the instrument.

change of solid form post dynamic vapor sorption experiment	water absorbed (dynamic vapor sorption)	SMILES
not have changed forms	about 1.1%	CCCC[C@](C)(CO)Nc1nc(N)nc2cc(F)cnc12 [Compound I Gentisic Acid, (R)-2-((2-amino-7-fluoropyrido[3,2-d]pyrimidin-4-yl)amino)-2-methylhexan-1-ol gentisic acid]
not have changed forms	about 0.68%	CCCC[C@](C)(CO)Nc1nc(N)nc2cc(F)cnc12 [Compound I Hippuric Acid, (R)-2-((2-amino-7-fluoropyrido[3,2-d]pyrimidin-4-yl)amino)-2-methylhexan-1-ol hippuric acid]
not have changed forms	about 1.2%	CCCC[C@](C)(CO)Nc1nc(N)nc2cc(F)cnc12.O=C(O)CCC(=O)O [Compound I Succinic Acid, (R)-2-((2-amino-7-fluoropyrido[3,2-d]pyrimidin-4-yl)amino)-2-methylhexan-1-ol succinic acid]
